In brackets after ≈: the same amount, converted by molar mass.
Key:
DPP-4 = target: T1, DPP-4 (Homo sapiens, UniProt P27487); test: Dipeptidyl peptidase IV (DPP-4) inhibitory assay; type: biochemical; conditions: Table 3; mean ± SEM (n = 3); NA: not active
T1 construct: purchased Cayman (Michigan, USA)
Protocol: Dipeptidyl peptidase (IV) inhibitors work by inhibiting the action of this enzyme, thereby prolonging the activity of incretins that play an important role in insulin secretion and blood glucose control regulation. DPP-4 inhibitory assay was performed as per the standard method (Cayman, USA). Firstly, 1 mg of sample was dissolved in 10% of DMSO and MeOH as the stock solution. For initial activity (100%), 10 μL of MeOH, 30 μL of diluted assay buffer, and 10 μL of diluted DPP-4 (Cayman, USA) were added to 96-well microplate. […] For background well, 10 μL of MeOH and 40 μL of diluted assay buffer were added. Then, 10 μL of prepared sample and 30 μL of diluted assay buffer were added with 10 μL of diluted DPP-4. After that, 50 μL of substrate solution was added to all wells to initiate the reaction and further incubated in the dark at 37°C for 30 min. Finally, plate was read at 360 nm of excitation wavelength and 465 nm of emission wavelength using fluorescence microplate reader (Perkin Elmer, Germany). All determinations were done in triplicate and half maximal concentration (IC50) values were calculated from the percentage of inhibition based on the linear regression analysis. The equation given below was applied to calculate the inhibitory activity (%):(5) Inhibitory activity%=Initial Activity−Sample/Initial Activity×100%.
For DPP-4 inhibitory assay, the reaction is based on the cleavage of the peptide bond by DPP releasing the free Gly-Pro-aminomethylcoumarin group, a fluorogenic substrate resulting in fluorescence excitation and emission.

[1] = ABTS+ radical scavenging assay; conditions: 734 nm, mean ± SEM (n = 3)
Protocol: An improved ABTS^+ radical decolorization assay was carried out involving direct production of the blue/green ABTS^+ chromophore through the reaction between ABTS and potassium persulfate. Addition of antioxidant to the preformed radical cation reduces it to ABTS to an extent on a time scale depending on the antioxidant activity, the concentration of the antioxidant, and the duration of the reaction. 1 ml ABTS was dissolved in water to make 7 mM concentration of the resultant solution. […] The resultant reaction mixture was allowed to stand in the dark at room temperature for 12–16 h before being used. The ABTS^+ radical solution was diluted with MeOH to an absorbance of 0.7 (±0.02) at 734 nm. Then, 100 μl of sample at various concentrations (1000–0.4889 μg/mL) was mixed with 100 μL of diluted ABTS^+ radical. Each concentration was analyzed in triplicate and the percentage decrease of absorbance at 734 nm with a microplate reader (Tecan NanoQuant Infinite M200, Switzerland) was calculated for each point and the antioxidant capacity of the tested compounds was expressed as percent inhibition (%). The radical scavenging activity of the compounds was measured according to the following equation [29]:(2) % inhibition=Acontrol−Asample/Acontrol×100. IC50 values were calculated by linear regression of plots, and the average percent of scavenging capacity was taken from three replicates. Trolox was used as a standard in comparison for the determination of the antioxidant activity of the flavonoids.

[2] = Ferric reducing antioxidant power (FRAP); conditions: for FRAP (AAE μg): ascorbic acid equivalent, mean ± SEM (n = 3), Table 2
Protocol: This assay was based on the reduction of the ferric tripyridyltriazine (Fe III-TPTZ) complex to the ferrous ion (Fe II) at a low pH forming an intense blue color. In the FRAP assay, compounds that are rich in antioxidant effect exert their action by breaking the free radical chain by donating a hydrogen atom. Briefly, ferric reducing antioxidant power (FRAP) reagent (2.5 mL of a 10 mM TPTZ solution in 40 mM HCl, 2.5 mL of 20 mM FeCl3, and 25 mL of 0.1 M acetate buffer pH 3.6) was prepared and incubated for 10 min at 37°C. Then 20 μL of each compound and ascorbic acid (standard) and 40 μL of FRAP reagent were added to 140 μL of distilled water in a 96-well plate producing a blue-colored solution. The solutions were kept at room temperature for 20 min in the dark and then measured at 593 nm with a microplate reader (Tecan, Switzerland) using a reagent blank composed of 40 μL of FRAP reagents in 200 μL of distilled water. A calibration curve was prepared with a serial dilution of ascorbic acid (standard). The total antioxidant capacity was calculated by interpolating the measured absorbance of the calibration curve and expressed as ascorbic acid equivalents. The results were corrected for dilution and expressed as AAE μg of ascorbic acid/g.

[3] = Rapid screening of radical scavenging activity by dot blot assay (DPPH staining); conditions: silica sheet stained with DPPH in MeOH, dilutions from 1000 μg/mL
Protocol: An aliquot (20 μL) of each dilution of each group was carefully loaded on a […] TLC plate and allowed to dry for 10 min. Drops of each sample were loaded in the order of decreased concentration along the 16 columns. The staining of the silica plate was based on the procedure of Soler-Rivas et al.. […] The intensity of the yellow color depends upon the amount and nature of radical scavenger present in the flavonoids.

[4] = target: α-glucosidase from Saccharomyces cerevisiae; test: α-Glucosidase inhibitory assay; type: biochemical; conditions: Table 3; mean ± SEM (n = 3); NA: not active
Protocol: α-Glucosidase inhibitory activity of the flavonoids was carried out according to the standard method with minor modification. […] A solution of 30 mM phosphate buffer (pH 6.5) was used to prepare stock solution of the sample to form a final concentration of 160 μg/mL. Then, 10 μL/well of sample was mixed with 15 μL/well of α-glucosidase from Saccharomyces cerevisiae (Megazyme, Ireland). 50 mM buffer (pH 6.5) was used to prepare the enzyme solution. Then, 115 μL/well of 30 mM buffer (pH 6.5) was added and incubated for 5 min at room temperature. Then, 75 μL/well of PNP-glucoside was added to initiate reaction and incubated at room temperature for 15 min. Finally, about 50 μL glycine at pH 10 was added to stop the reaction. The final volume of 250 μL of compound, positive control, enzyme, 30 mM buffer, and substrate was located in 96-well microplate. The absorbance (Abs) was measured using microplate reader (Tecan NanoQuant Infinite M200, Switzerland) at 405 nm to represent the amount of p-nitrophenol released from PNP-glucoside. […] The equation given below was used to calculate the inhibitory activity (%):(4) Inhibitory activity%=Abs control−Abs sample/Abs control×100%.
Tested on yeast α-glycosidase, the reaction is initiated by reacting the inhibitor (sample) with the α-glycosidase enzyme that competes with […] for the binding site, thus releasing ρ-nitrophenol which was measured in the assay.

[5] = DPPH radical scavenging assay; conditions: 30 min, 517 nm, mean ± SEM (n = 3)
Protocol: Each sample's stock solution was diluted to final concentrations of 1000–0.4889 μg/mL in MeOH. A total of 1 mL of a 0.3 mM DPPH methanolic solution was added to 2.5 mL of sample solution of different concentrations and allowed to react at room temperature. After 30 min, the absorbance (Abs) values were measured at 517 nm with a microplate reader (Tecan NanoQuant Infinite M200, Switzerland) and converted into the percentage antioxidant activity using the following equation described previously: (1) % antioxidant activity=100−Abssample−Abssample blank/Abscontrol−Abscontrol blank×100. MeOH + compound solution was used as a blank, while DPPH solution plus MeOH was used as a negative control. The positive controls were DPPH solution plus 1 mM ascorbic acid. The IC50 values were calculated by linear regression of plots. The average percent of scavenging capacity was taken from three replicates.

[6] = target: T2, xanthine oxidase from buttermilk (Bos taurus, UniProt P80457); test: Xanthine oxidase inhibitory assay (XOI); type: biochemical
T2 construct: 0.3 U/mL enzymes (xanthine oxidase from buttermilk); purchased Sigma-Aldrich (Singapore); host or cells: buttermilk (natural source)
T2 sequence (P80457 whole entry): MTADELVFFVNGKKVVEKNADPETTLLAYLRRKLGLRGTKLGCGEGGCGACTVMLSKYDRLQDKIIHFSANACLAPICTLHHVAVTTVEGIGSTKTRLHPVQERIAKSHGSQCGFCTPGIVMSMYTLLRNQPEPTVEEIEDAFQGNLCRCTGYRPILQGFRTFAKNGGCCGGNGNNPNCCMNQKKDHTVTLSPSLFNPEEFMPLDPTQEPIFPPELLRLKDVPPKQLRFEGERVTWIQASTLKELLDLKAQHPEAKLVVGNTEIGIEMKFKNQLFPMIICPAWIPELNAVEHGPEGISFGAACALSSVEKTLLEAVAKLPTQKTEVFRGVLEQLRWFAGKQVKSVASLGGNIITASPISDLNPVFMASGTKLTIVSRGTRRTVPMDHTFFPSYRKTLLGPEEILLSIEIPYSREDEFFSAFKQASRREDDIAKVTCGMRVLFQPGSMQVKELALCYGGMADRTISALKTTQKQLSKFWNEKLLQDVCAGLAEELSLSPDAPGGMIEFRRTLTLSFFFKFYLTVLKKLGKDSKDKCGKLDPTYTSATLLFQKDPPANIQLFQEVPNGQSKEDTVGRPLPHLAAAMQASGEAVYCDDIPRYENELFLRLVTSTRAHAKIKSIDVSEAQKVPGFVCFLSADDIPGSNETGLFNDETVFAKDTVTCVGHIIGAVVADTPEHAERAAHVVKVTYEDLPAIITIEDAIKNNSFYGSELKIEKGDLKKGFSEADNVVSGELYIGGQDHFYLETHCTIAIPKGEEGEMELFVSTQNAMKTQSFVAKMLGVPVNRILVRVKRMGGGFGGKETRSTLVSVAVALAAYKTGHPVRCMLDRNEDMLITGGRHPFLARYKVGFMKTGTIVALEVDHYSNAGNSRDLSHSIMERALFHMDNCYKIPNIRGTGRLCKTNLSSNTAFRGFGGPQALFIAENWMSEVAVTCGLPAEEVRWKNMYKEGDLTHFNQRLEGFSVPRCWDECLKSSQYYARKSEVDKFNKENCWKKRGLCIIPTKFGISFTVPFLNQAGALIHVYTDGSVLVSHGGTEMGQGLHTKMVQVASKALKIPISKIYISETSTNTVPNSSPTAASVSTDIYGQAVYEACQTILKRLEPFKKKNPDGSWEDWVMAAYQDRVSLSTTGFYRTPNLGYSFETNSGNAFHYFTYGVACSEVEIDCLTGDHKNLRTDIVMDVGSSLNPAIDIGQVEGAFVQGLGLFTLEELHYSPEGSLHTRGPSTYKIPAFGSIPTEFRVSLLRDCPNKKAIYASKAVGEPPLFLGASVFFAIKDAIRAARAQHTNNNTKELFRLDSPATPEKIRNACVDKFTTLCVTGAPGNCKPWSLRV
Protocol: XO catalyzes the oxidation of hypoxanthine to xanthine and subsequently to uric acid. The inhibition of XO reduces both vascular oxidative stress and circulating levels of uric acid. This assay is based on the fact that the superoxide anions are generated by the xanthine. The xanthine oxidase inhibitory activity was measured spectrophotometrically (Tecan NanoQuant Infinite M200, Switzerland) at 295 nm under aerobic condition with slight modification. The reaction mixture contained 50 mM phosphate buffer (pH 7.5), 0.15 mM xanthine (substrate), and 0.3 U/mL enzymes (xanthine oxidase from buttermilk). Samples were prepared by dissolving 1 mg in 5% DMSO in MeOH which gives sample concentration of 144.0 μg/mL in assay. […] The absorption increment at 295 nm indicates the formation of […] of uric acid/min at 25°C. […] All determination was done in triplicate and half maximal concentration (IC50) values were calculated from the percentage of inhibition. XO inhibition activity was expressed as the percentage inhibition of XO as follows:(3) % of inhibition=AbsA−B−C−D/AbsA−B×100, where A is the negative control with B as the blank of A which is without the enzyme and the sample while C is the activity of the sample with enzyme with D as the blank of the sample without enzyme.

T1 sequence (P27487 whole entry): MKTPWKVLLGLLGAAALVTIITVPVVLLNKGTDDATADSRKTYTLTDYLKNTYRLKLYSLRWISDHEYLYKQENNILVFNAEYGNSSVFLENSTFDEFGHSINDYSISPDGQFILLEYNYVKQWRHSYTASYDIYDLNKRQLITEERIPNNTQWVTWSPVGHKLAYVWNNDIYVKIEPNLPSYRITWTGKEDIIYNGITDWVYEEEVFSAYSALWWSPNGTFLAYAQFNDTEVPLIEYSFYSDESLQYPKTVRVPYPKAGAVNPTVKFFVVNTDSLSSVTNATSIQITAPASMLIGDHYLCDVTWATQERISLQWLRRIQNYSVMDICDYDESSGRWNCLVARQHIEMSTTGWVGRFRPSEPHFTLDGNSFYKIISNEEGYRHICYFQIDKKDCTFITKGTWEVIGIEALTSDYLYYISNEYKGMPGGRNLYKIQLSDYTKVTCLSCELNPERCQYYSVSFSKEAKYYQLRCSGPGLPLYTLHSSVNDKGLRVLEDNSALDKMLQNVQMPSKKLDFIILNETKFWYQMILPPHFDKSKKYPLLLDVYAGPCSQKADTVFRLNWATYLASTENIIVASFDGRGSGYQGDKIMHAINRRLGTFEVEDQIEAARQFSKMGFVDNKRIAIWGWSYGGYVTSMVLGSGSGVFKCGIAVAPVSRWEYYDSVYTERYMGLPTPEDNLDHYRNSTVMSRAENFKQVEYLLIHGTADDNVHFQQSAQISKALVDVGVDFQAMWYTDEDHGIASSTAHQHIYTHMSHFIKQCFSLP

Row | IC50 (DPP-4) [µM] | IC50 ABTS+ [1] | IC50 α-Glucosidase [4] | IC50 DPPH [5] | xanthine oxidase inhibitory effect (in words) ([6]; discussion) | IC50 ([6]; xanthine oxidase inhibition, 295 nm, mean ± SEM (n = 3), NA: not active) [µM] | IC50 ABTS+ ([1]; listed as wogonin) [µg/mL] | SMILES | FRAP antioxidant capacity [2] | FRAP (AAE μg) [2] | radical scavenging activity by dot blot (intensity of yellow spots) [3]
1 | > 373 | 3.19 ± 0.15^F µg/ml | >100^A µg/mg | 68.24 ± 3.70^C µg/ml |  |  |  | COc1ccc2c(=O)cc(-c3ccccc3)oc2c1O [8-Hydroxy-7-methoxyflavone] | 104.92 ± 8.29 AAE μg of ascorbic acid/g | 104.92 ± 8.29^D AAE μg | intermediate radical scavenging activity
2 |  | >100^B µg/ml | >100^A µg/mg | >100^B µg/ml | low xanthine oxidase inhibitory activity | > 393 |  | O=c1cc(-c2ccccc2)oc2cc(O)cc(O)c12 [Chrysin, 5,7-Dihydroxyflavone] | 21.38 ± 1.86 AAE μg of ascorbic acid/g | 21.38 ± 1.86^F AAE μg | intermediate radical scavenging activity
3 | > 370 | 1.24 ± 0.19^FG µg/ml | >100^A µg/mg | 35.61 ± 1.68^D µg/ml |  |  |  | O=c1cc(-c2ccccc2)oc2c(O)c(O)cc(O)c12 [Norwogonin, 5,7,8-Trihydroxyflavone] | 177.37 ± 1.82 AAE μg of ascorbic acid/g | 152.14 ± 7.30^C AAE μg | intermediate radical scavenging activity
4 | > 352 | 52.63 ± 2.99^D µg/ml | >100^A µg/mg | >100^B µg/ml |  |  | 52.65 ± 2.99 (≈ 185 µM) | COc1c(O)cc(O)c2c(=O)cc(-c3ccccc3)oc12 [Wogonin, 5,7-Dihydroxy-8-methoxyflavone] | 39.15 ± 1.68 AAE μg of ascorbic acid/g | 39.15 ± 1.68^E AAE μg | intermediate radical scavenging activity

From article PMC5727842, “Antioxidant and Antidiabetic Effects of Flavonoids: A Structure-Activity Relationship Based Study” (BioMed Research International, 2017)
